From patent US12473298B2, “Amide compounds, preparation method therefor, and use thereof in the medical field” (Shanghai Synergy Pharmaceutical Sciences Co., Ltd., priority 2019, dated 2025)
Read-outs that look alike come from different tables or passages of the source.

Key:
[1] = Pharmacokinetic experiment in rats; type: in vivo, SD rats; conditions: for AUC / Cmax / bioavailability: male, SD, rat, plasma, rats; for AUC: read-out: Area Curve (AUC, ng/mL · h); for half-life: male, SD, rat, plasma; rats, Intravenous-Dose 4 mg/kg; read-out: Half life T1/2, h) (converted); for Cmax: read-out: Blood Drug level (Cmax, ng/mL); for bioavailability: oral 20 mg/kg vs intravenous 4 mg/kg, read-out: Bioavailability (P %)
Method: A certain amount of compound was weighted and dissolved in 0.1% Tween under vortex and ultrasound, and 0.5% carboxymethyl cellulose sodium (CMC-NA) solution was added to form a uniform solution.

[2] = system: human diffuse large B-cell lymphoma cells (Karpas 422 cell); test: Karpas 422 cell proliferation, Calcein AM staining; type: cell-based; conditions: Homo sapiens
[3] = system: human diffuse large cell lymphoma B lymphocytes (Pfeiffer cell); test: Pfeiffer cell proliferation, Calcein AM staining; type: cell-based; conditions: Homo sapiens, Pfeiffer
Excerpt: The diffuse large cell lymphoma B lymphocytes (Pfeiffer cells) were collected and counted when growing well.

wild-type EZH2 = wild-type EZH2 (Homo sapiens (Human), UniProt Q15910); test: radiometric assay, activity to wild-type EZH2 of PRC2; conditions: read-out: Wild-type EZH2 IC50 Nanomoles per Liter
Method: 25 μL of reaction solution was transferred to a scintillation plate, which was incubated at room temperature for 1 hour (h) and washed with deionized water and 0.1% Tween 20 for three times. A PerkinElmer liquid scintillation/luminescence counter was used to read the value, and GraphPad Prism 5 was used to calculate the median inhibitory concentration (IC50) of the compounds.

Mutant type EZH2(Y641F) = Mutant type EZH2(Y641F) (Homo sapiens (Human), UniProt Q15910, Y641F); test: AlphaLISA, mutant type PRC2 complex EZH2(Y641F); type: biochemical; conditions: read-out: Mutant type EZH2(Y641F) IC50 Nanomoles per Liter
Mutant type EZH2(A677G) = Mutant type EZH2(A677G) (Homo sapiens (Human), UniProt Q15910, A677G); test: AlphaLISA, mutant type PRC2 complex EZH2(A677G); type: biochemical; conditions: read-out: Mutant type EZH2(A677G) IC59 Nanomoles per Liter
[4] = KARPAS-422, data of 14th day, read-out: Karpas422 Proliferation IC50 Nanomoles per Liter
[5] = data of 14th day, read-out: Pfeiffer Proliferation IC50 Nanomoles per Liter

Sequence of Mutant type EZH2(Y641F) (Q15910 whole entry Y641F): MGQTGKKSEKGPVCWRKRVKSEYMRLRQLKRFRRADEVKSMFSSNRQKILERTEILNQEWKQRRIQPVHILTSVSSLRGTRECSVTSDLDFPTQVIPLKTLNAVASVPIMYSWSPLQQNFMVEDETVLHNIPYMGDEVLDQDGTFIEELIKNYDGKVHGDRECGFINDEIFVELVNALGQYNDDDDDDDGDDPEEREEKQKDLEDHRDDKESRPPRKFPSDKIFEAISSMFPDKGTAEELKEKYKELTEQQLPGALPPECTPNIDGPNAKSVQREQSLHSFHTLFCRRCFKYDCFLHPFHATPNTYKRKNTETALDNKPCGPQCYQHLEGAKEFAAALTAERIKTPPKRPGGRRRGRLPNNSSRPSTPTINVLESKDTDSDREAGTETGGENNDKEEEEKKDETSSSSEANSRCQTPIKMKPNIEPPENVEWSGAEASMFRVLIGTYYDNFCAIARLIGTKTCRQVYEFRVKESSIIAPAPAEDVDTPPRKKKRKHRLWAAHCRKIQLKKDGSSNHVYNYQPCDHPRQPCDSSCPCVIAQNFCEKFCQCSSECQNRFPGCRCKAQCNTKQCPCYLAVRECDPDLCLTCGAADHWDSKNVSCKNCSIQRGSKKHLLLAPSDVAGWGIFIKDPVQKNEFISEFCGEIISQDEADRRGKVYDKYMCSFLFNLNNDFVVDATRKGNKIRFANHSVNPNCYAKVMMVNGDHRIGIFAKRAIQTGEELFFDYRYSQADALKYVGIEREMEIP
Sequence of Mutant type EZH2(Y641F) (O75530 whole entry partner): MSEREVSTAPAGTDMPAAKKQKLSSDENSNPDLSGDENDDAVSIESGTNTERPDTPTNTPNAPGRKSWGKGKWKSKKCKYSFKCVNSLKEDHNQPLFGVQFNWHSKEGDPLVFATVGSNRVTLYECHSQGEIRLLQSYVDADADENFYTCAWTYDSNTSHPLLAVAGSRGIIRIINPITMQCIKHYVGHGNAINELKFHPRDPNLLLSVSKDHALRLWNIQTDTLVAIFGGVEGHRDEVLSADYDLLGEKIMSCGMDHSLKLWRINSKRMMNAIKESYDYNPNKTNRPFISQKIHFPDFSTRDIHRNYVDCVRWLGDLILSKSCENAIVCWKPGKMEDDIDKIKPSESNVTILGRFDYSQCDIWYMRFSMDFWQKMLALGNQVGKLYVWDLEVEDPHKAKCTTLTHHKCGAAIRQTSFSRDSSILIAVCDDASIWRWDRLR
Sequence of Mutant type EZH2(Y641F) (Q15022 whole entry partner): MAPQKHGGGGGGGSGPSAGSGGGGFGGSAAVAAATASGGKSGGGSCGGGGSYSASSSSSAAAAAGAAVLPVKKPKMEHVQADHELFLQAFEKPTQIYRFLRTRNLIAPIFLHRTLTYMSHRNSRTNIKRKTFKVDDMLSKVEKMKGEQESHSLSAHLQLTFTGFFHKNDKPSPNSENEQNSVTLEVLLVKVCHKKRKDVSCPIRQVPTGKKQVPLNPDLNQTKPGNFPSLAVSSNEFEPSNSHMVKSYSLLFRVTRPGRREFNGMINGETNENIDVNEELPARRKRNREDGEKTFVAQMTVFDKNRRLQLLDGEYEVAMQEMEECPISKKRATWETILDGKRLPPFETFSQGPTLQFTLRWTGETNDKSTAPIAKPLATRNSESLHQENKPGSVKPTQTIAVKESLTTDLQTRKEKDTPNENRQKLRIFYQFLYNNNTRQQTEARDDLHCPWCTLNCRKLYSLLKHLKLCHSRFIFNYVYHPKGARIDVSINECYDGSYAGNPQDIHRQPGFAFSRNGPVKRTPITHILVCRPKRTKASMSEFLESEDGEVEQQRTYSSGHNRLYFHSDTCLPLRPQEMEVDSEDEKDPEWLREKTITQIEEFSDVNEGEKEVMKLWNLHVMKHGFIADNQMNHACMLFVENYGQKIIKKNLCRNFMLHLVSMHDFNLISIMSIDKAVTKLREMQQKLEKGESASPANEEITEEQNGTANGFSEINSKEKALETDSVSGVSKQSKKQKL
Sequence of Mutant type EZH2(Y641F) (Q09028 whole entry partner): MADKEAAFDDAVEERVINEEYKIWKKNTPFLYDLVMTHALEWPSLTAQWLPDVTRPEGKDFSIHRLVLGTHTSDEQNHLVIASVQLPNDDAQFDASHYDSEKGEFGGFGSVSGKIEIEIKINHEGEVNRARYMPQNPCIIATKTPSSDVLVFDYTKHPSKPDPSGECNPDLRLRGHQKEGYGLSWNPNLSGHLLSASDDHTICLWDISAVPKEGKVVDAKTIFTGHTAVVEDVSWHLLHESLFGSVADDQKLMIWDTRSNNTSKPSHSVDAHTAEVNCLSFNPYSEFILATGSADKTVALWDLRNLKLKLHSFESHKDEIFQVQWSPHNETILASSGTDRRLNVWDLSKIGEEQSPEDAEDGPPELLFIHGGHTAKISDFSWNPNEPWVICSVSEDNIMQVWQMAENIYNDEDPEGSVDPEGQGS
Sequence of Mutant type EZH2(Y641F) (Q6ZN18 whole entry partner): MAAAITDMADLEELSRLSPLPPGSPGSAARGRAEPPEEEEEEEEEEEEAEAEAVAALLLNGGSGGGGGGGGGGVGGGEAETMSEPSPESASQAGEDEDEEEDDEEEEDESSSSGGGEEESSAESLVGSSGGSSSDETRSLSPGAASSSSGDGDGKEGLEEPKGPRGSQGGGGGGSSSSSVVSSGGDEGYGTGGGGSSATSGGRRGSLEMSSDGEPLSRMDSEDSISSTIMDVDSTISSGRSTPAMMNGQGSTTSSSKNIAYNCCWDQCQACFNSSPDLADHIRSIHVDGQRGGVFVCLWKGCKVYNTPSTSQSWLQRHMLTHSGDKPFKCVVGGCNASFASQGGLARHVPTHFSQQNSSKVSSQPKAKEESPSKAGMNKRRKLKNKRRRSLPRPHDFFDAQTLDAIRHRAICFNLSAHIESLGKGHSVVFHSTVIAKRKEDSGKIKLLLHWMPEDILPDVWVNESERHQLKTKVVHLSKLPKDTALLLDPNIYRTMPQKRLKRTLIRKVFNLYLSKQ
Sequence of wild-type EZH2 (Q15910 whole entry): as the sequence (Q15910 whole entry Y641F) above, with F641Y counted along it
Sequence of wild-type EZH2 (O75530 whole entry partner): as the sequence (O75530 whole entry partner) above
Sequence of wild-type EZH2 (Q15022 whole entry partner): as the sequence (Q15022 whole entry partner) above
Sequence of Mutant type EZH2(A677G) (Q15910 whole entry A677G): as the sequence (Q15910 whole entry Y641F) above, with F641Y, A677G counted along it
Sequence of Mutant type EZH2(A677G) (O75530 whole entry partner): as the sequence (O75530 whole entry partner) above
Sequence of Mutant type EZH2(A677G) (Q15022 whole entry partner): as the sequence (Q15022 whole entry partner) above
Sequence of Mutant type EZH2(A677G) (Q09028 whole entry partner): as the sequence (Q09028 whole entry partner) above
Sequence of Mutant type EZH2(A677G) (Q6ZN18 whole entry partner): as the sequence (Q6ZN18 whole entry partner) above

Row | AUC ([1]; Intravenous-Dose 4 mg/kg) [ng·h/mL] | half-life [1] [h] | AUC ([1]; Oral-Dose 20 mg/kg) [ng·h/mL] | Cmax ([1]; Oral-Dose 20 mg/kg) [ng/mL] | bioavailability [1] [%] | IC50 [2, 4] [nM] | IC50 [3, 5] [nM] | IC50 (wild-type EZH2) [pM] | IC50 (Mutant type EZH2(Y641F)) [pM] | IC50 (Mutant type EZH2(A677G)) [pM] | Compound | IC50 ([2]; KARPAS-422, read-out: Karpas422 Proliferation IC50 Nanomoles per Liter (nM)) [nM] | IC50 ([3]; read-out: Pfeiffer Proliferation IC50 Nanomoles per Liter (nM)) [nM]
1 |  |  |  |  |  | 0.53 | 0.36 | 920 | 630 | 520 | CCN(c1cc(-c2ccc3c(c2)NC(=O)C32CCOCC2)cc(C(=O)NCc2c(C)cc(C)[nH]c2=O)c1C)C1CCOCC1F (stereo not shown) [Example 103, N-((4,6-Dimethyl-2-oxo-1,2-dihydropyridin-3-yl)methyl)-3-(ethyl(3-fluoro-tetrahydro-2H-pyran-4-yl)amino)-2-methyl-5-(2-oxo-2′,3′,5′,6′-tetrahydrospiro[dihydroindole-3,4′-pyran]-6-yl)benzamide] |  | 
2 |  |  |  |  |  | 2.34 | 1.86 |  | 530 |  | CCN(c1cc(-c2ccc3c(c2)NC(=O)C32CCN(S(C)(=O)=O)CC2)cc(C(=O)NCc2c(C)cc(C)[nH]c2=O)c1C)C1CCOCC1 [Example 87, N-((4,6-dimethyl-2-oxo-1,2-dihydropyridin-3-yl)methyl)-3-(ethyl(tetrahydro-2H-pyran-4-yl)amino)-2-methyl-5-(1′-methylsulfonyl-2-oxospiro[dihydroindole-3,4′-piperidine]-6-yl)benzamide] |  | 
3 | 990 | 1.64 | 1540 | 436 | 31.1 | 4.57 | 3.63 | 1240 | 880 | 570 | CCN(c1cc(-c2ccc3c(c2)NC(=O)C32CCOCC2)cc(C(=O)NCc2c(C)cc(C)[nH]c2=O)c1C)C1CCS(=O)(=O)CC1 [Example 96, N-((4,6-Dimethyl-2-oxo-1,2-dihydropyridin-3-yl)methyl)-3-((ethyl)(1,1-dioxotetrahydro-2H-thiapyran-4-yl)amino)-2-methyl-5-(2-oxo-2′,3′,5′,6′-tetrahydrospiro[dihydroindole-3,4′-pyran]-6-yl)benzamide] |  | 
4 |  |  |  |  |  | 2.65 | 1.65 | 1090 |  |  | CCN(c1cc(-c2ccc3c(c2)NC(=O)C32CCN(C(=O)OC(C)(C)C)CC2)cc(C(=O)NCc2c(C)cc(C)[nH]c2=O)c1C)C1CCOCC1 [Example 79, Tert-butyl 6-(3-(((4,6-dimethyl-2-oxo-1,2-dihydropyridin-3-yl)methyl)carbamoyl)-5-(ethyl(tetrahydro-2H-pyran-4-yl)amino)-4-methylphenyl)-2-oxospiro[dihydroindole-3,4′-piperidine]-1′-carboxylate] |  | 
5 |  |  |  |  |  | 2.83 | 2.52 | 1420 | 730 | 580 | CCN(c1cc(-c2ccc3c(c2)NC(=O)C32CCS(=O)(=O)CC2)cc(C(=O)NCc2c(C)cc(C)[nH]c2=O)c1C)C1CCOCC1 [Example 90, N-((4,6-dimethyl-2-oxo-1,2-dihydropyridin-3-yl)methyl)-5-(1′,1′-dioxo-2-oxo-2′,3′,5′,6′-tetrahydrospiro[dihydroindole-3,4′-thiapyran]-6-yl)-3-(ethyl(tetrahydro-2H-pyran-4-yl)amino)-2-methylbenzamide] |  | 
6 |  |  |  |  |  | 2.79 | 2.35 | 780 | 530 | 480 | CCN(c1cc(-c2ccc3c(c2)NC(=O)C32CCOCC2)cc(C(=O)NCc2c(C)cc(C)[nH]c2=O)c1C)C1CCSCC1 [Example 95, N-((4,6-Dimethyl-2-oxo-1,2-dihydropyridin-3-yl)methyl)-3-(ethyl(tetrahydro-2H-thiapyran-4-yl)amino)-2-methyl-5-(2-oxo-2′,3′,5′,6′-tetrahydrospiro[dihydroindole-3,4′-pyran]-6-yl)benzamide] |  | 

The remaining lines, values behind:

Row | Compound | AUC ([1]; Intravenous-Dose 4 mg/kg) [ng·h/mL] | half-life [1] [h] | AUC ([1]; Oral-Dose 20 mg/kg) [ng·h/mL] | Cmax ([1]; Oral-Dose 20 mg/kg) [ng/mL] | bioavailability [1] [%] | IC50 [2, 4] [nM] | IC50 [3, 5] [nM] | IC50 (wild-type EZH2) [pM] | IC50 (Mutant type EZH2(Y641F)) [pM] | IC50 (Mutant type EZH2(A677G)) [pM] | IC50 ([2]; KARPAS-422, read-out: Karpas422 Proliferation IC50 Nanomoles per Liter (nM)) [nM] | IC50 ([3]; read-out: Pfeiffer Proliferation IC50 Nanomoles per Liter (nM)) [nM]
7 | CCN(c1cc(-c2ccc3c(c2)N(CCOC)C(=O)C32CCOCC2)cc(C(=O)NCc2c(C)cc(C)[nH]c2=O)c1C)C1CCOCC1 [Example 45, N-((4,6-dimethyl-2-oxo-1,2-dihydropyridin-3-yl)methyl)-3-(ethyl(tetrahydro-2H-pyran-4-yl)amino)-5-(1-(2-methoxyethyl)-2-oxo-2′,3′,5′,6′-tetrahydrospiro[dihydroindole-3,4′-pyran]-6-yl)-2-methylbenzamide] | 944 | 1.71 | 1310 | 505 | 27.7 | 0.43 | 0.12 | 710 |  |  |  | 
8 | CCN(c1cc(-c2ccc3c(c2)C(=O)C2(CCN(C)CC2)C3)cc(C(=O)NCc2c(C)cc(C)[nH]c2=O)c1C)C1CCOCC1 [Example 107, N-((4,6-Dimethyl-2-oxo-1,2-dihydropyridin-3-yl)methyl)-3-(ethyl(tetrahydro-2H-pyran-4-yl)amino)-2-methyl-5-(1′-methyl-1-oxo-1,3-dihydrospiro[indene-2,4′-piperidine]-6-yl)benzamide] |  |  |  |  |  | 5.76 | 4.38 | 1030 | 860 | 670 |  | 
9 | CCN(c1cc(-c2ccc3c(c2)NC(=O)C32CCNCC2)cc(C(=O)NCc2c(C)cc(C)[nH]c2=O)c1C)C1CCNCC1 [Example 117, N-((4,6-dimethyl-2-oxo-1,2-dihydropyridin-3-yl)methyl)-3-(ethyl(piperidin-4-yl)amino)-2-methyl-5-(2-oxospiro[indole-3,4′-piperidine]-6-yl)benzamide] |  |  |  |  |  | 3.57 | 2.31 | 1080 | 940 | 610 |  | 
10 | N-((4,6-dimethyl-2-oxo-1,2-dihydropyridin-3-yl)methyl)-3-(ethyl(tetrahydro-2H-pyran-4-yl)amino)-5-(1-isopropyl-2′,3′,5′,6′-tetrahydrospiro[dihydroindole-3,4′-pyran]-6-yl)-2-methylbenzamide [Example 65] |  |  |  |  |  |  |  |  |  | 780 |  | 
11 | CCN(c1cc(-c2ccc3c(c2)CCC2(CCOCC2)C3=O)cc(C(=O)NCc2c(C)cc(C)[nH]c2=O)c1C)C1CCOCC1 [Example 106, N-((4,6-Dimethyl-2-oxo-1,2-dihydropyridin-3-yl)methyl)-3-(ethyl(tetrahydro-2H-pyran-4-yl)amino)-2-methyl-5-(1-oxo-2′,3,3′,4,5′,6′-hexahydro-1H-spiro[naphthalene-2,4′-pyran]-6-yl)benzamide] |  |  |  |  |  | 3.89 | 3.41 | 980 | 820 | 710 |  | 
12 | CCN(c1cc(-c2ccc3c(c2)CCC32CCOCC2)cc(C(=O)NCc2c(OC)cc(C)[nH]c2=O)c1C)C1CCOC(C)(C)C1 (stereo not shown) [Example 43, 3-((2,2-dimethyltetrahydro-2H-pyran-4-yl)(ethyl)amino)-5-(2,2′,3,3′,5′,6′-hexahydrospiro[indene-1,4-pyran]-5-yl)-N-((4-methoxy-6-methyl-2-oxo-1,2-dihydropyridin-3-yl)methyl)-2-methylbenzamide] | 1030 | 1.64 | 1620 | 490 | 31.3 |  |  |  |  |  | 1.36 | 1.19
13 | CCN1CCC2(CC1)C(=O)Nc1cc(-c3cc(C(=O)NCc4c(C)cc(C)[nH]c4=O)c(C)c(N(CC)C4CCOCC4)c3)ccc12 [Example 85, N-((4,6-dimethyl-2-oxo-1,2-dihydropyridin-3-yl)methyl)-3-(ethyl(tetrahydro-2H-pyran-4-yl)amino)-2-methyl-5-(1′-ethyl-2-oxospiro[dihydroindole-3,4′-piperidine]-6-yl)benzamide] |  |  |  |  |  | 2.85 | 2.42 | 810 | 820 | 380 |  | 
